Source: a melting point compilation (Tetko et al.; mined from patent text by program, amines drawn as free bases though some values may be those of a salt)

| SMILES | melting point [°C] |
| --- | --- |
| CC(=O)Oc1ccc(C(=O)NOCc2ccccc2)cc1 | 120 to 122 |
| N#CCSC(=S)SCCc1ccccc1 | 72 to 73 |
| Cc1nc2cc(OCCCN3CC=C(c4c[nH]c5ccc(C#N)cc45)CC3)ccc2s1 | 263 to 265 |
| CC(Cl)(Cl)C1(Cl)N=C(Cl)C(Cl)=N1 | 58 to 60 |
| COc1cc(SC#N)cc(C#N)c1N | 121 to 122 |
| Cc1c(Br)ccc(S(C)(=O)=O)c1S(C)(=O)=O | 169 to 171 |
| CC12CCC(O)CC1=CCC1C2CCC2(C)C(c3ccco3)=CCC12 (centres undefined) | 105 to 116 |
| C#CC1=CCC2C3CCC4=CC(=O)CCC4C3CCC12C (centres undefined) | 148 to 152 |
| CN1CCN2c3ccccc3C(O)c3ccccc3C2C1 (centres undefined) | 137 to 138 |
| CCc1oc2ccccc2c1C(=O)NCc1ccc2c(Br)c(OC(Cc3ccccc3)C(=O)O)ccc2c1 (centres undefined) | 162 to 165 |
| CC(C)(CC(=O)O)C(Br)CC(Cl)(Cl)Cl (centres undefined) | 123 to 124 |
| N#Cc1cnc2sc(-c3ccc(C=O)cc3)cc2c1Nc1cccc2[nH]ccc12 | > 245 |
| O=C(NC(=O)N(Sc1ccccc1[N+](=O)[O-])c1ccc(Cl)cc1)c1c(F)cccc1F | 176 to 178 |
| CNCC1Cc2cc(-c3ccccc3)cc(-c3ccc(F)cc3)c2O1 (centres undefined) | > 250 |
| Cn1ncc2c1CS(=O)c1cn[nH]c1-2 (centres undefined) | > 270 |
| NC(C=C(CCCCO)CP(=O)(O)O)C(=O)O (centres undefined) | 152 to 155 |
| Oc1ccc2c(c1)CCCC(c1ccccc1)=C2c1ccc(OCCCCCSCc2cccs2)cc1 | 178 |
| O=c1c2c[nH]c3ccccc3c-2nn1-c1nccs1 | > 350 |
| Oc1cnc2c(c1)CCC(c1ccc(Cl)c(Cl)c1)O2 (centres undefined) | 218 to 219 |
| CNc1nc(C)c(-c2nc3ccccc3c(=O)n2-c2ccccc2C)s1 | 218 to 220 |
| CNC(=S)Nc1ccc(C)cn1 | 161 |
| Cc1cc(Br)cnc1CCCCN=C(NCCCc1c[nH]cn1)NC(=O)c1ccccc1 | 126 to 128 |
| COC(OC)(c1ccncc1)C(NC(=O)NCCCc1ccccc1)c1ccc(F)cc1 (centres undefined) | 162 to 166 |
| CCCCc1c(C)c2ccc(OCCCCl)cc2[nH]c1=O | 203 |

| SMILES | melting point [°C] |
| --- | --- |
| O=S(=O)(N[C@@H]1C[C@@H](/C=C\CCCCO)N(S(=O)(=O)c2ccc(Cl)cc2)C1)c1ccc(Cl)cc1 | 108 to 109 |
| O=C(CC(O)C(=O)O)c1ccc(C(F)(F)F)cc1 (centres undefined) | 118 to 120 |
| CC(C)CCN1C(=O)C(NC(=O)Oc2ccccc2)C(=O)N(c2ccccc2F)c2ccccc21 (centres undefined) | 226 to 227 |
| O=C(O)CC1CCC2(CC1)OOC1(O2)C2CC3CC(C2)CC1C3 (centres undefined) | 146 to 148 |
| CC1(C)C2CCC1(C(=O)P(=O)(c1ccccc1)c1ccccc1)C(=O)C2=O (centres undefined) | 92.1 |
| CCCCc1nnc(C(=O)N(C)Cc2ccccc2)n1Cc1ccc(-c2ccccc2-c2nnn[nH]2)cc1 | > 95 |
| Cc1ncoc1C(O)c1ccccc1 (centres undefined) | 79 to 81 |
| c1ccc(Cn2ncc3c2-c2ccccc2C3(Cc2ccncc2)Cc2ccncc2)cc1 | 154 to 155 |
| CC1(C)Oc2ccc(C#N)cc2[C@@H](OC2=CC(=O)OC2)[C@@H]1O (relative stereo) | 111 to 114 |
| O=[N+]([O-])c1ccc(-c2nn(-c3ccccn3)cc2C=NO)o1 | 234 to 235 |
| CC(=O)N(C)C(=N[N+](=O)[O-])NCc1csc(Cl)n1 | 105 to 108 |
| CC(=O)C1(C)COC(C)(C)OC1 | 48 to 50 |
| COc1ccc(Cl)c2c1C(=O)OC2=O | 192 to 193 |
| OC(CCCCCOc1cccc(Cl)c1)c1cccc(OCc2ccc3ccccc3n2)c1 (centres undefined) | 69.5 to 70.5 |
| OCCCCCCCCCCCCCCC(O)CNCCO (centres undefined) | 103 |
| NC(=S)CCCc1ccc(Br)cc1 | 104 to 105 |
| CCOc1cc2c(c(Cl)c1O)Sc1ccccc1N2 | 186 to 189 |
| CCCCNC(=O)OC1c2cc(C(F)(F)F)ccc2C(=O)N1c1ccc2ccc(Cl)nc2n1 (centres undefined) | 120 |
| O=c1[nH]c2ccccc2c(O)c1-c1csc(-c2ccncc2)n1 | > 250 |
| CCCCOc1ccc(CCCOc2c(CC(=O)O)cccc2OC)c(Oc2ccc(C(F)(F)F)cn2)c1 | 69 to 70 |
| CC(=O)OCC(=O)Nc1cccc(NC(=O)COC(C)=O)c1C#N | 151 to 153 |
| COC(=O)C(O)C(F)(F)F (centres undefined) | 50 to 53 |
| FC(F)(F)C1(c2cc(Cl)cc(Cl)c2)CC(c2ccc(Br)cc2)=NO1 (centres undefined) | 122 to 124 |

The remaining lines, values ahead:

| melting point [°C] | SMILES |
| --- | --- |
| 199 to 202 | CCc1nc(-c2ncn3c4ccccc4c(=O)n(C)c23)no1 |
| > 300 | CCn1ncc2c3[nH]c4cc(C)nn4c(=O)c3cnc21 |
| 201 to 202 | COc1ccc(OC)c2c(=O)c3ccccc3sc12 |
| 145 to 149 | CC(C)C1(C)NC(c2ncccc2CO)=NC1=O (centres undefined) |
| 120 to 122 | COCCNS(=O)(=O)c1ccc(Nc2nc(OCC3CCCCC3)c3nc[nH]c3n2)cc1 |
| 170 to 172 | CC(O)c1cc2c(s1)C(=O)c1sccc1C2=O (centres undefined) |
| 105 | C=CCOc1cc2c(c(Cl)c1Cl)C(=O)C(C)(c1ccccc1)C2 (centres undefined) |
| 178 | CC(C(=O)c1ccc(Br)cc1)n1ncn(-c2ccc(N3CCN(c4ccc(O[Si](C)(C)C(C)(C)C)cc4)CC3)cc2)c1=O (centres undefined) |
| 120 to 121 | Cc1nccnc1C(=O)Nc1ccccc1-c1ccc(OC(F)(F)F)cc1 |
| 215 to 219 | Cc1cc(-c2ccc(S(C)(=O)=O)cc2)n(-c2ccc(Br)cc2)c1C |
| 140 to 146 | CC(=O)NC[C@H]1CN(c2ccc(N3CCNC(=O)CC3)c(F)c2)C(=O)O1 |
| 155 to 157 | CCOC(=O)c1ccc2[nH]cc(C3CCN(C)CC3)c2c1 |
| 206 to 209 | CN(Cc1ccc(CCn2cnc3cc(-c4ccc(Cl)cc4)sc3c2=O)cc1)C(=O)OC(C)(C)C |
| 115 to 118 | CCOC(=O)c1nnc(N2N=C(c3ccc([N+](=O)[O-])c(C)c3)c3cc4c(cc3C[C@H]2C)OCO4)s1 |
| 145 to 147 | N#Cc1c(OCC(F)(F)F)nc(N)nc1N1CCc2ccccc2CC1 |
| 177 to 179 | CC(=O)Oc1c(OC(C)=O)c([C@H]2CC[C@H](c3ccc(Cl)cc3)CC2)c(OC(C)=O)c2ccccc12 |
| 129 to 130 | COc1cccc([C@H]2O[C@H](CC(=O)N[C@@H](CCSC)C(=O)O)C(=O)N(CC(C)(C)CO)c3ccc(Cl)cc32)c1OC |
| 245 to 247 | COc1cc2c(cc1OC)C(C(S)(C#N)c1ccccc1C(=O)O)=NCC2 (centres undefined) |
| 78.4 to 80.5 | Cc1cc(-c2cc(COS(C)(=O)=O)c(=O)n(CC=Cc3ccccc3)n2)ccc1F |
| 166 to 167 | O=C(NC1CCCCC1)NS(=O)(=O)c1ccc2c(c1)CCN(C(=O)N1CCCCC1)CC2 |
| > 250 | NCc1ccn(C2=CC3=C(CC2)CCc2[nH]c(=O)c(=O)n(CC(=O)O)c23)c1 |
| 268 to 270 | COc1ccc(-c2cc(O)n3nccc3n2)cc1OC |
| 293 | Cc1ccc(N2C(=O)C(O)=C(C(=O)c3ccc(C(C)C)cc3)C2c2ccc(Cn3ccnn3)cc2)nn1 (centres undefined) |
| 98 to 100 | Cc1cc(C)c(C#N)c(-c2ccc(F)c(C)c2)c1 |
| 153 to 154 | COc1nc(C)c(C(C)O)cc1NC(=O)N1CCN(c2cc(C)cc(C)c2)CC1 (centres undefined) |
| 129 | CCOC(=O)c1c(CC)nc2c(C(F)(F)F)cccc2c1O |

| melting point [°C] | SMILES |
| --- | --- |
| 120 | COC(=O)C1=C(C)NC(C)=C(C)C1c1ccccc1 (centres undefined) |
| 114 | COc1cccc(-c2nc(Cl)nc(Cl)n2)c1 |
| 203 | O=C(O)CC1(c2ccc(Cl)c(Cl)c2)CCC(=O)NC1=O (centres undefined) |
| 132 to 134 | CC(C)c1ccc(-n2ncc(C(=O)NC34CC5CC(CC(C5)C3)C4)c2OCCN2CCOCC2)cc1 |
| 235 to 237 | O=C(Nc1cc(Cl)c(O)c(Cl)c1)c1ccc(O)cc1O |
| 74 | Cc1cccc(-c2nc3ccc(OCC(C)N(C)C)cc3n2Cc2ccccc2)c1 (centres undefined) |
| 145 to 146 | CC(C)CC1(C(CCN2C(=O)c3cccc(F)c3C2=O)C(=O)NO)CCN(CCc2ccccc2)C1=O (centres undefined) |
| 144 to 145 | CC(C)c1nn(-c2ccc(C(F)(F)F)cn2)cc1CCCOc1c(C#N)cccc1CC(=O)O |
| 98 to 104 | CC(C)(C)NC(=O)[C@@H]1CCCN1C(=O)[C@@H](O)[C@H](Cc1ccccc1)NC(=O)[C@H](CC(N)=O)NC(=O)COC1CCN(C(=O)OCc2ccccc2)CC1 |
| 134 to 136 | C=C1c2c(C)c(N3CCN(c4ccc(OC)cc4)CC3)c(C)c(C)c2OC1(C)C |
| 166 to 167 | COc1cc(OC)c(C(=O)CCl)cc1C |
| 191 to 193 | Cc1cn(NC(=O)c2ccccc2C(=O)O)c2ccccc12 |
| 151 to 153 | N#Cc1cccc(-c2c(C(N)=O)c3n(c2Cl)CCNC3)c1 |
| 75 to 95 | CNS(=O)(=O)NCCNC(=O)[C@@H](C[C@H](O)[C@H](C)NC(=O)OC(C)(C)C)C(C)C |
| 184 to 185 | COc1ccc(C(=O)N2c3ccccc3C(n3c4ccccc4c4ccccc43)=CC2C)cc1OC (centres undefined) |
| 99 to 100 | CNC(=S)Nc1ccccc1CC(=O)OC |
| 120 to 121 | COC(=O)c1ccc2cc(CO)ccc2c1 |
| 174 to 176 | Cn1cc(C(=O)NCc2ccc(Cl)cc2)c(=O)c2sc(C=O)c(COCC[Si](C)(C)C)c21 |
| 178 to 180 | COC(=O)CCc1c(O)ncc2cc(OC)c(OC)cc12 |
| 149 to 150 | CCCCOc1c(CNC(=O)OC(C)(C)C)n(CC(C)(C)C)c(=O)c2cc(F)ccc12 |
| 283 to 284 | CCn1cc(C(=O)O)c(=O)c2cc(F)c(N3CCN(S(=O)(=O)c4ccc(N)cc4)CC3)cc21 |
| 147 to 149 | CC1(C)CN(c2c(C#N)cnn2-c2ccc(Cl)c(Cl)c2Cl)C1=O |
| 245 | CC(C)NC(=O)N1CCc2[nH]cnc2C1c1ccccc1 (centres undefined) |
| 202 to 204 | Cc1ccc(S(=O)(=O)c2cnc(C)nc2Nc2c(C)cc(C)cc2C)cc1 |
| 119 to 120 | COc1ccc(COC(=O)n2c(S(=O)Cc3ccc(C)cn3)nc3cscc32)cc1 (centres undefined) |
| 182 to 183 | CN(C)C1CC2=CNC=C3C=C(C(N)=O)OCC1=C32 (centres undefined) |
